Experimental findings from patent publication US20260355196A1, “INHIBITORS AND DEGRADERS OF PIP4K PROTEIN” (Larkspur Biosciences, Inc., priority 2023, published 2026) are described below.

Where only a bound is given, the exact number is not on record here.

The target of the first test is T1, PIP4K2C (Homo sapiens, UniProt Q8TBX8).
T1 sequence (Q8TBX8 1-421): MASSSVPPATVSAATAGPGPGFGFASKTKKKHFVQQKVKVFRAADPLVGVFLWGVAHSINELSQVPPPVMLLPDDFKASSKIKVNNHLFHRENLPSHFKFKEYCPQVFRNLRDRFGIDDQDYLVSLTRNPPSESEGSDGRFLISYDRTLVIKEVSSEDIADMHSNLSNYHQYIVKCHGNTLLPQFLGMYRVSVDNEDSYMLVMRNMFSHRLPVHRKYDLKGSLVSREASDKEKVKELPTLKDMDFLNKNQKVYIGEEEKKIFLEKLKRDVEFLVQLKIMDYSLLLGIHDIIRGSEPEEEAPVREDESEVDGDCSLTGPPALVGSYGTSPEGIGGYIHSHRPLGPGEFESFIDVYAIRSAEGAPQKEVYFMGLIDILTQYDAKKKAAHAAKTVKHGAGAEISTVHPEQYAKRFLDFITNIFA
Nature of the test: HiBiT PIP4K2C degradation assay in MOLT-4 cells (endogenous PIP4K2C C-terminally tagged with HiBiT). Type of test: cell-based. The arrangement: untagged in primary human PBMCs and monocyte-derived dendritic cells. The following applies: 6 hours of incubation time, rather than 24 hours; MOLT-4, top concentration 10 micromolar; read-out: HiBIT-degradation MOLT4 PIP4k2C DC50 (6 hours, marked *). The gist of the method:
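Cells are plated onto compound dilutions (10 points, 3-fold, top 10 micromolar) and incubated 24 or 6 hours at 37 C. Lytic HiBiT detection then quantifies tagged endogenous PIP4K2C in MOLT-4, and a Hill fit yields DC50.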
In general terms: The HiBiT peptide binds its large partner to form an active luciferase.
As to `Cn1nc([C@H]2CCC(=O)NC2=O)c2ccc(C3CCN(CC4CCN(C(=O)[C@H]5CC[C@H](Nc6ncc(F)c(-c7cccc(-n8ccccc8=O)c7)n6)CC5)CC4)CC3)cc21` (single isomer, unassigned) [Compound 422], the DC50 – broadly, the midpoint of the concentration-degradation curve – is < 500 nM.

For `O=C1CCC(Nc2ccc(C3CCN([C@H]4CC[C@H](C(=O)N[C@H]5CC[C@H](Nc6ncc(F)c(-c7cccc(C8CC8)c7)n6)CC5)CC4)CC3)c(F)c2)C(=O)N1` (stereo partly drawn) [Compound 558, trans-(1r,4R)—N-((1r,4R)-4-((4-(3-cyclopropylphenyl)-5-fluoropyrimidin-2-yl)amino)cyclohexyl)-4-(4-(4-((2,6-dioxopiperidin-3-yl)amino)-2-fluorophenyl)piperidin-1-yl)cyclohexane-1-carboxamide], the DC50 is < 500 nM.

`O=C1CC[C@@H](Nc2ccc(C3CCN([C@H]4CC[C@H](C(=O)N[C@H]5CC[C@H](Nc6ncc(F)c(-c7cccc(-c8ccc[nH]c8=O)c7)n6)CC5)CC4)CC3)c(F)c2)C(=O)N1` [Compound 454, trans-4-(4-(4-(((R)-2,6-dioxopiperidin-3-yl)amino)-2-fluorophenyl)piperidin-1-yl)-N-(trans-4-((5-fluoro-4-(3-(2-oxo-1,2-dihydropyridin-3-yl)phenyl)pyrimidin-2-yl)amino)cyclohexyl)cyclohexane-1-carboxamide]: the DC50 was < 500 nM.

As for `O=C1CCC(Nc2ccc(C3CCN(CC4CCN(C(=O)[C@H]5CC[C@H](Nc6ncc(F)c(-c7cccc(N8CCOCC8=O)c7)n6)CC5)CC4)CC3)c(F)c2)C(=O)N1` (stereo partly drawn) [Compound 552, trans-3-((3-fluoro-4-(1-((1-(4-((5-fluoro-4-(3-(3-oxomorpholino)phenyl)pyrimidin-2-yl)amino)cyclohexane-1-carbonyl)piperidin-4-yl)methyl)piperidin-4-yl)phenyl)amino)piperidine-2,6-dione], the DC50 is < 500 nM.

In the case of `O=C1CC[C@H](Nc2ccc(C3CCN(CC4CCN(C(=O)[C@H]5CC[C@H](Nc6ncc(F)c(-c7cccc(N8CCCCC8=O)c7)n6)CC5)CC4)CC3)c(F)c2)C(=O)N1` (single isomer, unassigned) [Compound 449], the DC50 is < 500 nM.

Take `O=C1CCC(Nc2ccc(C3CCN(CC4CCC(C(=O)N5CCC(Nc6ncc(F)c(-c7cccc(N8CCCCC8)c7)n6)CC5)CC4)CC3)c(F)c2)C(=O)N1` (stereo not drawn) [Compound 682, trans-3-((3-fluoro-4-(1-((4-(4-((5-fluoro-4-(3-(piperidin-1-yl)phenyl)pyrimidin-2-yl)amino)piperidine-1-carbonyl)cyclohexyl)methyl)piperidin-4-yl)phenyl)amino)piperidine-2,6-dione]: the DC50 was < 500 nM.

On to `O=C1CCC(Nc2ccc(N3CCC(N4CCC(C(=O)N[C@H]5CC[C@H](Nc6ncc(F)c(-c7cccc(-c8ccc[nH]c8=O)c7)n6)CC5)CC4)C(F)C3)c(F)c2)C(=O)N1` (stereo partly shown) [Compound 406, 1′-(4-((2,6-dioxopiperidin-3-yl)amino)-2-fluorophenyl)-3′-fluoro-N-((1r,4r)-4-((5-fluoro-4-(3-(2-oxo-1,2-dihydropyridin-3-yl)phenyl)pyrimidin-2-yl)amino)cyclohexyl)-[1,4′-bipiperidine]-4-carboxamide], for which the DC50 is < 500 nM.

`O=C1CC[C@@H](Nc2ccc(N3CCN(CC4(O)CCN(C(=O)[C@H]5CC[C@H](Nc6ncc(F)c(-c7cccc(-n8ccccc8=O)c7)n6)CC5)CC4)CC3)c(F)c2)C(=O)N1` (single isomer, unassigned) [Compound 439]: the DC50 was < 500 nM.

In the case of `O=C1CCC(Nc2ccc(C3CCN(C4CCN(C(=O)O[C@H]5CC[C@H](Nc6ncc(F)c(-c7cccc(N8CCCOC8=O)c7)n6)CC5)CC4)CC3)c(F)c2)C(=O)N1` (stereo partly drawn) [Compound 677, trans-4-((5-fluoro-4-(3-(2-oxo-1,3-oxazinan-3-yl)phenyl)pyrimidin-2-yl)amino)cyclohexyl 4-(4-((2,6-dioxopiperidin-3-yl)amino)-2-fluorophenyl)-[1,4′-bipiperidine]-1′-carboxylate], the DC50 was < 500 nM.

For the compound `O=C1CCC(Nc2ccc(N3CCC(N4CCC(C(=O)N[C@H]5CC[C@H](Nc6ncc(F)c(-c7cccc(-n8ccccc8=O)c7)n6)CC5)CC4)C(F)(F)C3)c(F)c2)C(=O)N1` (stereo partly drawn) [Compound 598, trans-1′-(4-((2,6-dioxopiperidin-3-yl)amino)-2-fluorophenyl)-3′,3′-difluoro-N-(4-((5-fluoro-4-(3-(2-oxopyridin-1(2H)-yl)phenyl)pyrimidin-2-yl)amino)cyclohexyl)-[1,4′-bipiperidine]-4-carboxamide], the DC50 was < 500 nM.

With `O=C1CCC(Nc2ccc(C3CCN(CC4(F)CCN(C(=O)[C@H]5CC[C@H](Nc6ncc(F)c(-c7cccc(-n8ccccc8=O)c7)n6)CC5)CC4)CC3)c(F)c2)C(=O)N1` (stereo partly drawn) [Compound 487, trans-3-((3-fluoro-4-(1-((4-fluoro-1-(4-((5-fluoro-4-(3-(2-oxopyridin-1(2H)-yl)phenyl)pyrimidin-2-yl)amino)cyclohexane-1-carbonyl)piperidin-4-yl)methyl)piperidin-4-yl)phenyl)amino)piperidine-2,6-dione], the DC50 is < 500 nM.

In the case of `O=C1CC[C@@H](Nc2ccc(N3CCN([C@H]4CC[C@H](C(=O)N[C@H]5CC[C@H](Nc6ncc(F)c(-c7cccc(N8CCCOC8=O)c7)n6)CC5)CC4)CC3)c(F)c2)C(=O)N1` (single isomer, unassigned) [Compound 461], the DC50 is < 500 nM.

In the case of `O=C1CCC(Nc2ccc(N3CCC(N4CCC(NC(=O)[C@H]5CC[C@H](Nc6ncc(F)c(-c7cccc(-n8ccccc8=O)c7)n6)CC5)CC4)C(F)C3)c(F)c2)C(=O)N1` (stereo partly drawn) [Compound 452, trans-N-(1′-(4-((2,6-dioxopiperidin-3-yl)amino)-2-fluorophenyl)-3′-fluoro-[1,4′-bipiperidin]-4-yl)-4-((5-fluoro-4-(3-(2-oxopyridin-1(2H)-yl)phenyl)pyrimidin-2-yl)amino)cyclohexane-1-carboxamide], the half-maximal degradation concentration (DC50) was < 500 nM.

The same test, now with this note: 24 hours incubation, MOLT-4, top concentration 10 micromolar; read-out: HiBIT-degradation MOLT4 PIP4k2C 24 hours DC50.
In the case of `O=C1CCC(n2c(=O)oc3cc(C4CCN(CCC5CCN(C(=O)[C@@H]6CCC[C@H](Nc7ncc(F)c(-c8cccc(N9CCCOC9=O)c8)n7)C6)CC5)CC4)ccc32)C(=O)N1` (stereo partly drawn) [Compound 355, 3-(6-(1-(2-(1-((1R,3S)-3-((5-fluoro-4-(3-(2-oxo-1,3-oxazinan-3-yl)phenyl)pyrimidin-2-yl)amino)cyclohexane-1-carbonyl)piperidin-4-yl)ethyl)piperidin-4-yl)-2-oxobenzo[d]oxazol-3 (2H)-yl)piperidine-2,6-dione], the DC50 was 500 to 1000 nM.

In the case of `O=C1CCC(Nc2ccc(N3CCC(N4CCN(CCC(=O)N5CCC(Nc6ncc(Cl)c(-c7cccc(-c8ccccc8)c7)n6)CC5)CC4)CC3)cc2)C(=O)N1` (stereo not shown) [Compound 84, 3-((4-(4-(4-(3-(4-((4-([1,1′-biphenyl]-3-yl)-5-chloropyrimidin-2-yl)amino)piperidin-1-yl)-3-oxopropyl)piperazin-1-yl)piperidin-1-yl)phenyl)amino)piperidine-2,6-dione], the DC50 is < 500 nM.

As for `Cn1c(=O)n(C2CCC(=O)NC2=O)c2ccc(C3CCN(CC4CCN(CC(=O)N5CCC(Nc6ncc(F)c(-c7cccc(-c8ccccc8)c7)n6)CC5)CC4)CC3)cc21` (stereo not shown) [Compound 286, 3-(5-(1-((1-(2-(4-((4-([1,1′-biphenyl]-3-yl)-5-fluoropyrimidin-2-yl)amino)piperidin-1-yl)-2-oxoethyl)piperidin-4-yl)methyl)piperidin-4-yl)-3-methyl-2-oxo-2,3-dihydro-1H-benzo[d]imidazol-1-yl)piperidine-2,6-dione], the 50% degradation concentration (DC50) was < 500 nM.

For the compound `Cn1nc(C2CCC(=O)NC2=O)c2ccc(C3CCN(CCC4CCN(C(=O)[C@H]5CCC[C@@H](Nc6ncc(F)c(-c7cccc(-n8ccccc8=O)c7)n6)C5)CC4)CC3)cc21` (relative stereo) [Compound 298, 3-(6-(1-(2-(1-(cis-3-((5-fluoro-4-(3-(2-oxopyridin-1(2H)-yl)phenyl)pyrimidin-2-yl)amino)cyclohexane-1-carbonyl)piperidin-4-yl)ethyl)piperidin-4-yl)-1-methyl-1H-indazol-3-yl)piperidine-2,6-dione], the DC50 was < 500 nM.

Take `O=C1CCC(n2c(=O)oc3cc(C4CCN([C@H]5CC[C@H](CNC(=O)[C@H]6CCC[C@@H](Nc7ncc(F)c(-c8cccc(-n9ccccc9=O)c8)n7)C6)CC5)CC4)ccc32)C(=O)N1` (relative stereo) [Compound 349, cis-trans-N-((4-(4-(3-(2,6-dioxopiperidin-3-yl)-2-oxo-2,3-dihydrobenzo[d]oxazol-6-yl)piperidin-1-yl)cyclohexyl)methyl)-3-((5-fluoro-4-(3-(2-oxopyridin-1(2H)-yl)phenyl)pyrimidin-2-yl)amino)cyclohexane-1-carboxamide]: the DC50 is < 500 nM.

The same test, now with this note: read-out: HiBIT-degradation MOLT4 PIP4k2C 24 hours DC50; 24 hours incubation, MOLT-4, top concentration 10 micromolar.
With `O=C1CCC(Nc2ccc(C3CCN(C4CCN(CCC(=O)N[C@H]5CC[C@H](Nc6ncc(F)c(-c7cccc(-n8ccccc8=O)c7)n6)CC5)CC4)CC3)c(F)c2)C(=O)N1` (stereo partly drawn) [Compound 328, trans-3-(4-(4-((2,6-dioxopiperidin-3-yl)amino)-2-fluorophenyl)-[1,4′-bipiperidin]-1′-yl)-N-(4-((5-fluoro-4-(3-(2-oxopyridin-1(2H)-yl)phenyl)pyrimidin-2-yl)amino)cyclohexyl)propanamide], the DC50 is < 500 nM.
